Measurements: patent publication US5246989A, “Photochromic compound, composition and use thereof” (priority 1990, dated 1993)

Legend:
[1] = Photochromic characteristics of cast polymethyl methacrylate film (coloration under mercury lamp, fading); assay type: physicochemical; conditions: PMMA film, 1.0×10^-4 mol/g, 0.1 mm, 35° C.
[2] = Photochromic characteristics of 2 mm molded thermosetting resin piece containing the spiroxazine; assay type: physicochemical
Protocol: The compound synthesized in Example 1, which was represented by the following formula: [drawing 286] was dissolved and dispersed in polymethyl methacrylate with the aid of benzene, and a cast film was prepared on a slide glass sheet (11.2 cm×3.7 cm) so that the concentration of the compound in the film was 1.0×10^-4 mol/g and the thickness of the film was 0.1 mm. The photochromic film was irradiated with rays of a mercury lamp (SHL-100 supplied by Toshiba) located 10 cm apart from the film at 35° C.+1° C. for 60 seconds to effect coloration in the film, and the photochromic characteristics were examined with respect to items described below.
Maximum absorption wavelength (λmax):
The maximum absorption wavelength λmax of the colored film was determined by using a spectrophotometer (220 A supplied by Hitachi).
After 60 seconds' irradiation under the above-mentioned conditions, the absorbance at the maximum absorption wavelength was measured.
The absorbance at the maximum absorption wavelength of the unirradiated film was measured. Half-value period t^1/2 :
After 60 seconds' irradiation, the time required for reduction of the absorbance of the film to 1/2 of [ε(60 seconds)-ε(0 second)] was measured.
0.4 parts by weight of the spiroxazine synthesized in Example 1 was added to a composition of 70 parts by weight of chlorostyrene with 30 parts by weight of 2,2-bis(3,5-dibromo-4-methacryloyloxyethoxyphenyl) propane. One part by weight of perbutyl ND was added to the composition as an initiator of radical polymerization and was sufficiently mixed. The mixture liquid was casted into a mold comprising a glass plate and a gasket made of an ethylene-vinyl acetate copolymer and was polymerized in the mold. The mold was placed in an air oven. Polymerization was carried out by gradually elevating the temperature of the air oven from 30° C. to 90° C. for 18 hours and keeping it at 90° C. over a period of 2 hours. After the termination of the polymerization, the mold was removed from the air oven. After the mold was allowed to cool, the polymer molded piece was removed from the glass of the mold.
The photochromic characteristics of the obtained molded piece having a thickness of 2 mm was measured in the same method as Example 65.
Excepting that the kinds and amounts of the monomers and the spiroxazine used in Example 129 were changed and polymerization was carried out by a known means depending on the monomers, Examples 130 to 144 are identical with Example 129.

[3] = Example 129: BMDBP/c1-st (30/70), compound 0.4 parts, 2 mm
[4] = Example 130: ADC (100), compound 0.001 parts
[5] = Example 131: TMP-TAC(100), compound 0.4 parts
[6] = Example 132: BADBP/DAP (60/40), compound 0.4 parts
[7] = Example 133: BMDBP/st (50/50), compound 10 parts
[8] = Example 134: DCIPF/st (70/30), compound 70 parts
[9] = Example 135: EGDMA/st (50/50), compound 30 parts
[10] = Example 136: monomer composition drawn as drawing 288, compound 1.0 parts
[11] = Example 137: monomer composition drawn as drawing 289, compound 0.6 parts
[12] = Example 138: DVB/PETTP(60/40), compound 0.03 parts
[13] = Example 139: XIC/DME (58/42), compound 0.2 parts
[14] = Example 140: XIC/HPA/DVB (10/50/40), compound 0.4 parts
[15] = Example 141: MMA/DEGDMA (70/30), compound 0.1 parts
[16] = Example 142: BADBPO/TBBM/DAP (50/30/20), compound 0.1 parts
[17] = Example 143: HEMA/XIC/BMA (30/20/50), compound 0.1 parts
[18] = Example 144: DEGDMA/BMA (40/60), compound 0.1 parts

t1/2 (half-value period of absorbance after irradiation) ([1]; after 60 seconds' irradiation): 18 s
λ max (maximum absorption wavelength of the colored film) ([1]; mercury lamp 60 seconds): 601
ε (60 seconds)-ε (0 second) ([1]; mercury lamp 60 seconds, absorbance at λmax): 1.4
t1/2 [2, 3]: 20 s
ε(60 sec)-ε(0 sec) [2, 3]: 1.6
λmax [2, 3]: 604 nm
t1/2 [2, 4]: 24 s
ε(60 sec)-ε(0 sec) [2, 4]: 0.9
λmax [2, 4]: 607 nm
t1/2 [2, 5]: 28 s
ε(60 sec)-ε(0 sec) [2, 5]: 1.5
λmax [2, 5]: 607 nm
t1/2 [2, 6]: 21 s
ε(60 sec)-ε(0 sec) [2, 6]: 1.5
λmax [2, 6]: 606 nm
t1/2 [2, 7]: 20 s
ε(60 sec)-ε(0 sec) [2, 7]: 1.7
λmax [2, 7]: 604 nm
t1/2 [2, 8]: 18 s
ε(60 sec)-ε(0 sec) [2, 8]: 1.8
λmax [2, 8]: 604 nm
t1/2 [2, 9]: 19 s
ε(60 sec)-ε(0 sec) [2, 9]: 1.7
λmax [2, 9]: 604 nm
t1/2 [2, 10]: 20 s
ε(60 sec)-ε(0 sec) [2, 10]: 1.6
λmax [2, 10]: 601 nm
t1/2 [2, 11]: 22 s
ε(60 sec)-ε(0 sec) [2, 11]: 1.6
λmax [2, 11]: 601 nm
t1/2 [2, 12]: 22 s
ε(60 sec)-ε(0 sec) [2, 12]: 1.5
λmax [2, 12]: 606 nm
t1/2 [2, 13]: 19 s
ε(60 sec)-ε(0 sec) [2, 13]: 1.5
λmax [2, 13]: 604 nm
t1/2 [2, 14]: 19 s
ε(60 sec)-ε(0 sec) [2, 14]: 1.6
λmax [2, 14]: 604 nm
t1/2 [2, 15]: 18 s
ε(60 sec)-ε(0 sec) [2, 15]: 1.6
λmax [2, 15]: 601 nm
t1/2 [2, 16]: 23 s
ε(60 sec)-ε(0 sec) [2, 16]: 1.6
λmax [2, 16]: 606 nm
t1/2 [2, 17]: 22 s
ε(60 sec)-ε(0 sec) [2, 17]: 1.6
λmax [2, 17]: 601 nm
t1/2 [2, 18]: 19 s
ε(60 sec)-ε(0 sec) [2, 18]: 1.6
λmax [2, 18]: 601 nm
Structure (SMILES): CN1c2ccccc2C2(CCCCC2)C12C=Nc1ccc3ccccc3c1O2 (stereo not drawn) [Compound 1]
